Data from ChEMBL document CHEMBL4840359, “N-Terminus to Arginine Side-Chain Cyclization of Linear Peptidic Neuropeptide Y Y4 Receptor Ligands Results in Picomolar Binding Constants” (J Med Chem, 2021).
Calls of active or inactive are those of the source. No cut-off for these calls is given here. Starred links: 1 amine or outer side, 2 acyl side, 3 side chain; linkers in the order of their positions; H or OH if unused. Residues, ends and D or L forms follow the SMILES beside them. Groups on a side chain read outwards from the residue. *: point of attachment. Suc = O=C(CCC(=O)[*:2])[*:1]; NH(CH2)4NH2 = NCCCCN*; CO = O=C([*:1])[*:2]

Experiments:
[1] = target: T1, Neuropeptide Y receptor type 4 (Homo sapiens, UniProt P50391); assay: Displacement of [3H]UR-KK200 from human neuropeptide Y Y4 receptor expressed in CHO-mtAEQ cells co-expressing Gqi5 measured after 90 mins by scintillation counting analysis; type: cell-based
[2] = target: T1, Neuropeptide Y receptor type 4; assay: Displacement of [3H]UR-KK200 from human neuropeptide Y Y4 receptor expressed in CHO-mtAEQ cells co-expressing Gqi5 assessed as fold change in affinity measured after 90 mins by scintillation counting analysis relative to Ac-Arg-Tyr-Arg-Leu-Arg-Tyr-NH2; type: cell-based; details: filed as agonist
[3] = target: T2, Neuropeptide Y receptor type 1 (Homo sapiens, UniProt P25929); assay: Displacement of [3H]UR-MK299 from human neuropeptide Y Y1 receptor in human SK-N-MC cells measured after 90 mins by scintillation counting analysis; type: cell-based
T2 sequence (P25929 whole entry): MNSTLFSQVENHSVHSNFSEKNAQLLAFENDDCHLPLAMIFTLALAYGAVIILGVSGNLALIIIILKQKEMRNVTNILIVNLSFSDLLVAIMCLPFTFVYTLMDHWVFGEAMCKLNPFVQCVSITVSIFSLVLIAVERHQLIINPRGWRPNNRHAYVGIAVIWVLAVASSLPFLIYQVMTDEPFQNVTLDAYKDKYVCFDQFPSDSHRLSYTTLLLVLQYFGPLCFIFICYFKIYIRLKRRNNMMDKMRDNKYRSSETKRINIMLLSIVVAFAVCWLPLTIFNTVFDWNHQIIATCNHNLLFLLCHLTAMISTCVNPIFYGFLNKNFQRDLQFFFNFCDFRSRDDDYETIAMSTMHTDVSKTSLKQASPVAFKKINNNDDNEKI

[4] = target: T3, Neuropeptide Y receptor type 2 (Homo sapiens, UniProt P49146); assay: Displacement of [3H]UR-MK299 from human neuropeptide Y Y2 receptor expressed in CHO cells measured after 90 mins by scintillation counting analysis; type: cell-based
T3 sequence (P49146 whole entry): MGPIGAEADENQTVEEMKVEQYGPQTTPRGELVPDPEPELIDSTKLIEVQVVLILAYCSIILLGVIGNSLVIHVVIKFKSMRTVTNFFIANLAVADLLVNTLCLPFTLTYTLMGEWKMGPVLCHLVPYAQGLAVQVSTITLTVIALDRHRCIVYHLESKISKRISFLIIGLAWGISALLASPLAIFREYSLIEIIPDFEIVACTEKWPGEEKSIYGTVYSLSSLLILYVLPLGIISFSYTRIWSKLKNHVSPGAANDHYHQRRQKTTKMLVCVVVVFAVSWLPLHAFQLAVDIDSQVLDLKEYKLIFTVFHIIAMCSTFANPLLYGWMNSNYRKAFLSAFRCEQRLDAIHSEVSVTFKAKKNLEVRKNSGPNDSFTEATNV

[5] = target: T4, Neuropeptide Y receptor type 5 (Homo sapiens, UniProt Q15761); assay: Displacement of [3H]propionyl-pNPY from human neuropeptide Y Y5 receptor in human HEC-1B cells measured after 90 mins by scintillation counting analysis; type: cell-based, HEC-1B cell line
T4 sequence (Q15761 whole entry): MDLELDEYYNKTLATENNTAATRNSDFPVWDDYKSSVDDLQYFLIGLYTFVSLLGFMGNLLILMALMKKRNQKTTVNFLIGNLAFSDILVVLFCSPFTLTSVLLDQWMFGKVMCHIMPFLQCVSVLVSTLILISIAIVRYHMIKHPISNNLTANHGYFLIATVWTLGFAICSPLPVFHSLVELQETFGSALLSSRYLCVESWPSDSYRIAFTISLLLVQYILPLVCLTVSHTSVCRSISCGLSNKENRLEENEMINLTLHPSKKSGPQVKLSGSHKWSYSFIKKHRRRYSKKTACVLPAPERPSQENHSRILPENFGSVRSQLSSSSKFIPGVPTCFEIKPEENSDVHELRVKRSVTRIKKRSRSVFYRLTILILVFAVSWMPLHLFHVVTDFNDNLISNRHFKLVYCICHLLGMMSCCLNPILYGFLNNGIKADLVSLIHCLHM

Homo sapiens [6] = species on record: Homo sapiens; assay: (§1) Selectivity ratio, Ki for displacement of [3H]UR-MK299 from human neuropeptide Y Y1 receptor in human SK-N-MC cells measured after 90 mins by scintillation counting analysis to Ki for displacement of [3H]UR-KK200 from human neuropeptide Y Y4 receptor expressed in CHO-mtAEQ cells co-expressing Gqi5 measured after 90 mins by scintillation counting analysis; type: cell-based
Homo sapiens [7] = species on record: Homo sapiens; assay: Selectivity ratio, Ki for displacement of [3H]UR-MK299 from human neuropeptide Y Y2 receptor expressed in CHO cells measured after 90 mins by scintillation counting analysis to Ki for displacement of [3H]UR-KK200 from human neuropeptide Y Y4 receptor expressed in CHO-mtAEQ cells co-expressing Gqi5 measured after 90 mins by scintillation counting analysis; type: cell-based
Homo sapiens [8] = species on record: Homo sapiens; assay: as §1, with “[3H]propionyl-pNPY” for “[3H]UR-MK299”, “Y5” for “Y1”, “HEC-1B” for “SK-N-MC”; type: cell-based
[9] = target: T1, Neuropeptide Y receptor type 4; assay: Agonist activity at human neuropeptide Y Y4 receptor expressed in HEK293T-ARRB1 cells assessed as stimulation of beta-arrestin 1 recruitment by multimode plate reader; type: functional, cell-based
[10] = target: T1, Neuropeptide Y receptor type 4; assay: Intrinsic activity at human neuropeptide Y Y4 receptor expressed in HEK293T-ARRB1 cells assessed as stimulation of beta-arrestin 1 recruitment by multimode plate reader relative to hPP; type: functional, cell-based
[11] = target: T1, Neuropeptide Y receptor type 4; assay: Agonist activity at human neuropeptide Y Y4 receptor expressed in HEK293T-ARRB2 cells assessed as stimulation of beta-arrestin 2 recruitment by multimode plate reader; type: functional, cell-based
[12] = target: T1, Neuropeptide Y receptor type 4; assay: Intrinsic activity at human neuropeptide Y Y4 receptor expressed in HEK293T-ARRB2 cells assessed as stimulation of beta-arrestin 2 recruitment by multimode plate reader relative to hPP; type: functional, cell-based
[13] = target: T1, Neuropeptide Y receptor type 4; assay: Agonist activity at human neuropeptide Y Y4 receptor expressed in CHO-mtAEQ cells co-expressing Gqi5 by calcium aequorin assay; type: functional, cell-based
[14] = target: T1, Neuropeptide Y receptor type 4; assay: Intrinsic activity at human neuropeptide Y Y4 receptor expressed in CHO-mtAEQ cells co-expressing Gqi5 by calcium aequorin assay; type: functional, cell-based

T1 sequence (P50391 whole entry): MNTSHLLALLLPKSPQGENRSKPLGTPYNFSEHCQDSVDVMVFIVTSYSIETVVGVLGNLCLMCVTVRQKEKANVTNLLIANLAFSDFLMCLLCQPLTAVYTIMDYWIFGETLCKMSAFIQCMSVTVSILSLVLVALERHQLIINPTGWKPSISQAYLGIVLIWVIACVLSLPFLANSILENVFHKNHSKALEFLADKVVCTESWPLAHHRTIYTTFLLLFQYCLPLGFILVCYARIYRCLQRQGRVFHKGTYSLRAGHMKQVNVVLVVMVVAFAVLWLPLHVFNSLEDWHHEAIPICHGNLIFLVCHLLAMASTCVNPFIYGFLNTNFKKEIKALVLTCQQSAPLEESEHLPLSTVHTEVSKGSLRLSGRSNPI

Structure (SMILES)	Ki ([1]; read-out: Ki)	Ki ([1]; read-out: pKi (converted))	fold change (FC) [2]	Ki ([3]; read-out: pKi (converted))	Ki ([4]; read-out: Ki)	Ki ([4]; read-out: pKi (converted))	Ki ([5]; read-out: pKi (converted))	Selectivity ratio (Homo sapiens [6])	Selectivity ratio (Homo sapiens [7])	Selectivity ratio (Homo sapiens [8])	EC50 ([9]; read-out: EC50)	Intrinsic activity [10]	EC50 [11]	Intrinsic activity [12]	EC50 [13]	Intrinsic activity [14]	EC50 ([9]; read-out: pEC50 (converted))	further results
N=C(N)NCCC[C@@H]1NC(=O)CCC(=O)NCCCNC(=O)NC(=N)NCCC[C@@H](C(=O)N[C@@H](Cc2c[nH]c3ccccc23)C(=O)N[C@@H](CCCNC(=N)N)C(=O)N[C@@H](Cc2ccc(O)cc2)C(N)=O)NC(=O)[C@H](Cc2ccc(O)cc2)NC1=O (HELM PEPTIDE1{R.Y.[N=C(NCCC[C@H](N[*:1])C(=O)[*:2])N[*:3]].W.R.Y.[am]}|CHEM1{[O=C(CCC(=O)[*:1])NCCCNC(=O)[*:2]]}$PEPTIDE1,CHEM1,1:R1-1:R1|PEPTIDE1,CHEM1,3:R3-1:R2$$$V2.0)	0.028 µM	0.0288 µM	-8.2	> 10 µM	> 10 µM	> 10 µM	> 10 µM	> 350	> 350	> 350	0.52 µM	35%	0.355 µM	47%	0.38 µM	45%		Ki ([5]; hec-1b cell line, read-out: Ki): > 10 µM
CC(C)C[C@H](NC(=O)[C@@H]1CC(=O)NCC(=O)N[C@H](CCCNC(=N)N)C(=O)N[C@@H](CCCNC(=N)N)C(=O)N1)C(=O)N[C@@H](CCCNC(=N)N)C(=O)N[C@@H](Cc1ccc(O)cc1)C(N)=O	0.17 µM	0.138 µM	-50									inactive	> 10 µM	inactive	> 10 µM	inactive	> 10 µM	
CC(C)C[C@H](NC(=O)[C@@H]1CCCNC(=N)NC(=O)NCCCCNC(=O)CCC(=O)N[C@@H](CCCNC(=N)N)C(=O)N1)C(=O)N[C@@H](CCCNC(=N)N)C(=O)N[C@@H](Cc1ccc(O)cc1)C(N)=O (HELM PEPTIDE1{R.[N=C(NCCC[C@H](N[*:1])C(=O)[*:2])N[*:3]].L.R.Y.[am]}|CHEM1{[O=C(CCC(=O)[*:1])NCCCCNC(=O)[*:2]]}$PEPTIDE1,CHEM1,1:R1-1:R1|PEPTIDE1,CHEM1,2:R3-1:R2$$$V2.0)	0.0014 µM		2.4	> 3.16 µM	> 3 µM	> 3.16 µM	> 1000 µM	> 2100	> 2100	> 7100	0.18 µM	87%	0.0933 µM	83%	0.363 µM	61%		Ki ([3]; read-out: Ki): > 3 µM; Ki ([5]; read-out: Ki): > 10 µM
CC(=O)N[C@@H](CCCNC(=N)N)C(=O)N[C@@H](Cc1ccc(O)cc1)C(=O)N[C@@H](CCCNC(=N)N)C(=O)N[C@@H](CC(C)C)C(=O)N[C@@H](CCCNC(=N)N)C(=O)N[C@@H](Cc1ccc(O)cc1)C(N)=O				> 3.16 µM		> 3.16 µM	> 3.16 µM	> 830	> 830	> 830		55%		61%		75%		
CC(C)C[C@H](NC(=O)[C@@H]1CCCNC(=N)NC(=O)NCCCCNC(=O)CCC(=O)N[C@@H](CCCCN)C(=O)N[C@@H](Cc2ccc(O)cc2)C(=O)N1)C(=O)N[C@@H](CCCNC(=N)N)C(=O)N[C@@H](Cc1ccc(O)cc1)C(N)=O (HELM PEPTIDE1{K.Y.[N=C(NCCC[C@H](N[*:1])C(=O)[*:2])N[*:3]].L.R.Y.[am]}|CHEM1{[O=C(CCC(=O)[*:1])NCCCCNC(=O)[*:2]]}$PEPTIDE1,CHEM1,1:R1-1:R1|PEPTIDE1,CHEM1,3:R3-1:R2$$$V2.0)	0.00024 µM		14	> 3.16 µM	> 10 µM	> 10 µM	> 3.16 µM	> 12000	> 40000	> 12000	0.014 µM	61%	0.0129 µM	67%	0.0257 µM	75%		Ki ([3]; read-out: Ki): > 3 µM; Ki ([5]; read-out: Ki): > 3 µM
CC(C)C[C@@H]1NC(=O)[C@H](CCCNC(=N)N)NC(=O)[C@H](Cc2ccc(O)cc2)NC(=O)[C@H](CCCNC(=N)N)NC(=O)CCC(=O)NCCCNC(=O)NC(=N)NCCC[C@@H](C(=O)N[C@@H](Cc2ccc(O)cc2)C(N)=O)NC1=O	0.14 µM		-41									inactive	> 10 µM	inactive	> 10 µM	inactive	> 10 µM	
CC(C)C[C@H](NC(=O)[C@H](CCCNC(=N)N)NC(=O)[C@H](Cc1ccc(O)cc1)NC(=O)[C@H](CCCNC(=N)N)NC(=O)CCC(=O)O)C(=O)N[C@@H](CCCNC(=N)NC(=O)NCCCN)C(=O)N[C@@H](Cc1ccc(O)cc1)C(N)=O	0.053 µM		-16									inactive	> 10 µM	inactive	> 10 µM	inactive	> 10 µM	
CC(C)C[C@H](NC(=O)[C@H](CCCNC(=N)NC(=O)NCCCCN)NC(=O)[C@H](Cc1ccc(O)cc1)NC(=O)[C@H](CCCCN)NC(=O)CCC(=O)O)C(=O)N[C@@H](CCCNC(=N)N)C(=O)N[C@@H](Cc1ccc(O)cc1)C(N)=O (Suc-KYR([CO-NH(CH2)4NH2])LRY-NH2)	0.0071 µM	0.00692 µM	-2.1	> 10 µM	> 10 µM	> 10 µM	> 10 µM	> 1400	> 1400	> 1000	0.27 µM	57%	0.295 µM	61%				Ki ([3]; sk-n-mc, read-out: Ki): > 10 µM; Ki ([5]; hec-1b cell line, read-out: Ki): > 10 µM
CC(C)C[C@H](NC(=O)[C@H](CCCNC(=N)NC(=O)NCCCCN)NC(=O)[C@H](CCCNC(=N)N)NC(=O)CCC(=O)O)C(=O)N[C@@H](CCCNC(=N)N)C(=O)N[C@@H](Cc1ccc(O)cc1)C(N)=O (Suc-RR([CO-NH(CH2)4NH2])LRY-NH2)	0.01 µM		-2.9	> 10 µM	> 10 µM	> 10 µM	> 10 µM	> 1000	> 1000	> 1000	0.99 µM	71%	0.759 µM	60%				Ki ([3]; sk-n-mc, read-out: Ki): > 10 µM
